Test results: ChEMBL document CHEMBL1129114, “Bioactive hydroxyethylene dipeptide isosteres with hydrophobic (P3-P1)-moieties. A novel strategy towards small non-peptide renin inhibitors” (Bioorg Med Chem Lett, 1996)
pIC50: −log10 of the molar value.

What follows are compounds tested against T1, Renin (Homo sapiens, UniProt P00797) (assay: In vitro binding affinity was tested against purified human renin at pH 7.2).
T1 sequence (P00797 whole entry): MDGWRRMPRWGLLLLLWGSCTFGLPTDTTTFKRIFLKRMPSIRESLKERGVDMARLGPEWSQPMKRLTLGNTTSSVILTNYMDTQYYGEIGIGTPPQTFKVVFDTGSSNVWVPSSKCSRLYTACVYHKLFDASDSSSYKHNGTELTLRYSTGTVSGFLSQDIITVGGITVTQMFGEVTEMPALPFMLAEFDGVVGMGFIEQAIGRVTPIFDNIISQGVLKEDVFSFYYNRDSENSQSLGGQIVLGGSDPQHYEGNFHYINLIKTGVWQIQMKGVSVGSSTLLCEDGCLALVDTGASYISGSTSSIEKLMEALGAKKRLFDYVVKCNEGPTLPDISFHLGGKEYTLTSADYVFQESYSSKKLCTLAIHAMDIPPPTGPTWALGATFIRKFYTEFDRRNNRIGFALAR

| Compound | pIC50 |
| --- | --- |
| CCCCNC(=O)[C@H](C)C[C@H](O)[C@@H](N)CC(C)(C)CCCc1ccc2ccccc2c1 | 5.43 |
| CCCCNC(=O)[C@H](C)C[C@H](O)[C@@H](N)CC(C)(C)CCc1cccc2ccccc12 | 6.15 |
| CCCCNC(=O)[C@H](C)C[C@H](O)[C@@H](N)CC(C)(C)CCc1ccc2ccccc2c1 | 5.52 |
| CCCCNC(=O)[C@H](C)C[C@H](O)[C@@H](N)Cc1ccc(OCc2ccccc2)cc1 | 4.49 |
| CCCCNC(=O)[C@H](C)C[C@H](O)[C@@H](N)CC(C)(C)CCCc1cccc2ccccc12 | 5.68 |
| CCCCNC(=O)[C@H](C)C[C@H](O)[C@@H](N)CC(CC)(CC)CCc1cccc2ccccc12 | 5.57 |
| CCCCNC(=O)[C@H](C)C[C@H](O)[C@@H](N)CC(C)(C)CCc1ccc(CO)c2ccccc12 | 5.00 |

Other lines, results leading:

| pIC50 | Compound |
| --- | --- |
| 6.52 | CCCCNC(=O)[C@H](C)C[C@H](O)[C@@H](N)C[C@@H]1CCC[C@@H](CCCC(C)(C)C)C1 |
| 4.89 | CCCCNC(=O)[C@H](C)C[C@H](O)[C@@H](N)Cc1cccc(CCCC(C)(C)C)c1 |
| 4.10 | CCCCNC(=O)[C@H](C)C[C@H](O)[C@@H](N)CC(C)(C)CCc1ccc(CO)cc1 |
| 4.24 | CCCCNC(=O)[C@H](C)C[C@H](O)[C@@H](N)CC(C)(C)CCc1cccc(CO)c1 |
| 6.10 | CCCCNC(=O)[C@H](C)C[C@H](O)[C@@H](N)CC1CCCC(CCCC(C)(C)C)C1 (stereo partly specified) |
| 5.54 | CCCCNC(=O)[C@H](C)C[C@H](O)[C@@H](N)C[C@@H]1CCC[C@H](CCCC(C)(C)C)C1 |
| < 4.00 | CCCCNC(=O)[C@H](C)C[C@H](O)[C@@H](N)CC(C)C |
| 5.37 | CCCCNC(=O)[C@H](C)C[C@H](O)[C@@H](N)C[C@H]1CC[C@H](CCCC(C)(C)C)CC1 |
| 4.52 | CCCCNC(=O)[C@H](C)C[C@H](O)[C@@H](N)CC1CCCCC1 |
